Measurements as given in US8877940B2, “Antibiotic tolerance inhibitors” (Institut National de la Recherche Scientifique, priority 2011, dated 2014).
“Also recorded” adds a separate entry of the source.

Tests used:
[1] = test system: 4-hydroxy-2-alkylquinoline (HAQ) levels, P. aeruginosa PA14 (MvfR regulon); assay type: cell-based, Pseudomonas aeruginosa; details: very low concentrations, nanomolar range
[2] = test system: P. aeruginosa PA14; test: Murine burn and infection model, M64 plus ciprofloxacin; assay type: in vivo, DC-1 mice; details: IV at 6, 20, 28, 40, 60, 68 and 80 h; M64 100 μM (4 mg/Kg), ciprofloxacin 0.4 mg/Kg; 7 days; un-injected controls 30%
Description: A murine thermal injury model (Stevens et al., J Burn Care Rehabil. 1994; 15:232-235) was used as previously described to further assess bacterial pathogenicity in 6-wk-old DC-1 mice (Rahme et al., Science, 268(5219): p. 1899-902 (1995)) in the presence of combination of Ciprofloxacin (Bayer AG) and M64. Following mouse anesthetization, a full-thickness thermal burn injury involving 5%-8% of the body surface area was produced on the dermis of the shaved abdomen, and an inoculum of about 6-7×10^3 PA14 cells was injected intradermally into the burn eschar along with DMSO or 100 μM M64 compound. 100 μM (4 mg/Kg) of M64, 0.4 mg/Kg of ciprofloxacin (lower than the recommended dose of 10 mg/Kg), or a combination of M64+ciproflocaxin was also injected IV via tail vein at 6, 20, 28, 40, 60, 68 h and 80 h post-infection. Mice survival was subsequently assessed over the course of 7 days. Ten animals per treatment were used. In this set of experiments the concentration of ciprofloxacin used was lower than the therapeutic levels recommended to permit assessment of the possible synergistic effect between M64 and ciprofloxacin.

[3] = test system: pyocyanin, an MvfR-regulated virulence factor, P. aeruginosa PA14; test: Quantification of pyocyanin (OD520nm of chloroform-extracted cultures); assay type: cell-based, Pseudomonas aeruginosa; details: very low concentrations, nanomolar range
Description: Pyocyanin levels were determined by measuring OD520nm of chloroform-extracted cultures.
Compounds were tested at various concentrations for their impact on 4-hydroxy-2-alkylquinoline (HAQ) levels, including the MvfR ligands 4-hydroxy-2-heptylquinoline (HHQ) and 3,4-dihydroxy-2-heptylquinoline (PQS), as well as 2-n-heptyl-4-hydroxyquinoline-N-oxide (HQNO) and 2,4-dihydroxyquinoline (DHQ) (FIGS. 2A-2C). Levels of the phenazine, pyocyanin, an MvfR-regulated virulence factor, were also determined.

[4] = test system: Raw264.7 macrophage cells infected with PA14; test: Viability of PA14-infected macrophage cells (MTT assay); assay type: cell-based
Description: Raw264.7 macrophage cells were cultured in Dulbecco's modified eagles medium (DMEM) containing 10% FCS, 2 mM glutamine and antibiotic-antimycotic solutions. Before infections cells were washed with PBS (without Mg2+ and Ca2+) and antibiotic-free medium was used for infections. The cells were infected with PA14 and PA14 isolates grown in the presence of compounds at an MOI of 100 for 3 h at 37° C. in a 5% CO2 atmosphere. During infections cells were incubated with 100 μM of compounds as well. After 3 hours of PA14 infection, the cells were washed and incubated with DMEM medium containing polymixin B and gentamicin in order to kill the extracellular bacteria. The viability of Raw264.7 was assessed using the MTT assay, which detects the early sign of eukaryotic cell death. The formazan crystals formed in viable, metabolically active cells were dissolved by the addition of 100 μl DMSO and optical density was measured at 570 nm in a microplate reader.
In order to determine whether or not the potent inhibitors are cytotoxic in eukaryotes, Raw 264.7 macrophage cells were exposed to selected compounds. No significant cytotoxicity was observed following compound exposure for 3 hours compared to the DMSO solvent control (FIG. 6A). The cytotoxicity of the macrophage cells was also determined when infected with PA14 bacterial cells alone or in the presence of the compounds.

[5] = target: MvfR binding to pqsA promoter (Pseudomonas aeruginosa, UniProt Q9I4X0)
Sequence of MvfR binding to pqsA promoter (Q9I4X0 whole entry, looked up): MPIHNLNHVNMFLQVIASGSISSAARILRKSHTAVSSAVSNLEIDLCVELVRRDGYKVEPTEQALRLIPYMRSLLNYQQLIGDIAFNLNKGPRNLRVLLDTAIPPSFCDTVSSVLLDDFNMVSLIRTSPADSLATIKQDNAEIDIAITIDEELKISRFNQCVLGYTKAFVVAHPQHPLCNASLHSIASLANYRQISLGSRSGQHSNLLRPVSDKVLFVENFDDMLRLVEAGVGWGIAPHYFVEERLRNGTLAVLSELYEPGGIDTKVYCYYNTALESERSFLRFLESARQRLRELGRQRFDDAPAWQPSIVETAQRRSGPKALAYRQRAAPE

[6] = test system: P. aeruginosa PA14; test: Murine burn and infection model; details: ~100 μM compound/mouse at infection and IV at 6 and 24 h; solvent control 38%
Description: A thermal injury mouse model was used as described previously to assess bacterial pathogenicity in 6 week old BALBC mice (Charles River Laboratories). Following mouse anesthetization, a full-thickness thermal burn injury involving 5%-8% of the body surface area was produced on the dermis of the shaved abdomen. An inoculum of 4×10^4 PA14 cells, corresponding to a lethal dose of 50%, was injected intradermally into the burn eschar along with the compound or solvent, prepared as follows: 5 μl of a 50 mM stock in DMSO of compound was added to a solution of 5% CremophorEL/Ethanol (50/50% vol) in 50 μl saline. […] Each mouse also received IV injections of 50 μl of compound or solvent, as prepared above at 6 hours and 24 hours post-infection.
A murine thermal injury and infection model was used to assess the impact of the compounds on P. aeruginosa pathogenesis in animals. Due to the hydrophobic nature of the compounds, 5% CremophorEL/Ethanol (50/50% vol) was used as an emulsifier to dissolve the compound in saline prior to injecting into animals. […] The bacteria and either 100 μM compound/mouse or DMSO control were co-injected at the time of infection. Compounds were also injected 6 hours and 24 hours post-infection.

O=C(CSc1nc2ccc([N+](=O)[O-])cc2[nH]1)Nc1ccc(Oc2ccccc2)cc1 [Compound M64, 2-((6-nitro-1H-benzo[d]imidazol-2-yl)thio)-N-(4-phenoxyphenyl)acetamide]
reduction / inhibition of HAQs [1]: one of the most effective; also recorded: considerably inhibited | survival rate [2]: 75% | reduction / inhibition of pyocyanin [3]: one of the most effective; also recorded: considerably inhibited | viability at 100 µM ([4]; Mus musculus, RAW264.7, 3 h, read-out: viable macrophage cells surviving post-infection): 80% | reduction of PA14-induced cytotoxicity ([4]; PA14 MOI 100, 3 h, 100 μM compound): effectively reduced cytotoxicity | effect on MvfR binding to pqsA promoter (ChIP fold enrichment) [5]: affects MvfR binding to pqsA promoter by competing with the MvfR ligand PQS | overall surviving mice [6]: 84%
